Laboratory results taken from publication PMC11033537 (Iranian Journal of Parasitology, 2024).
In brackets after ≈: the same amount, converted by molar mass. Read-outs that look alike come from different tables or passages of the source.

Key:
Plasmodium falciparum = settings: cited from earlier work; for antimalarial activity: among 20 nature identical essential oil constituents
[1] = tested on: Trichomonas vaginalis cells, TVH1 strain; assay type: cell-based; settings: for inhibition at 0.2 µg/mL / inhibition at 0.4 µg/mL / inhibition at 0.8 µg/mL / inhibition at 1.6 µg/mL / inhibition at 3.1 µg/mL / inhibition at 6.2 µg/mL / inhibition at 3.9 µg/mL / inhibition at 7.8 µg/mL / inhibition at 15.6 µg/mL / inhibition at 31.2 µg/mL / inhibition at 62.5 µg/mL / inhibition at 250 µg/mL: read-out: Growth inhibition percent (Mean ± SD)
[2] = tested on: promastigotes of L. amazonensis; settings: cited from earlier work
MTT cytotoxicity assay = assay type: cell-based; settings: African green monkey, Vero cells
Vero cells = assay: MTT cytotoxicity assay; assay type: cell-based; settings: for CC50: Vero cells
[3] = tested on: intramacrophagic amastigotes of L. amazonensis; settings: cited from earlier work
[4] = tested on: Trichomonas vaginalis cells, TVH1 strain; assay: Annexin V/PI apoptosis assay by flow cytometry; assay type: cell-based; settings: sub-MLC concentration, 24 hours

C=CC(C)(O)CCC=C(C)CCC=C(C)C (mixture of isomers) [nerolidol]
antimalarial activity (Plasmodium falciparum): most potent antimalarial activity

Cc1ncc([N+](=O)[O-])n1CCO [Metronidazole, reference compound]
MLC (minimum lethal concentration) ([1]; 12 hours incubation): 25 µg/mL (≈ 146 µM)
MLC (minimum lethal concentration) ([1]; 48 hours incubation): 6.25 µg/mL (≈ 36.5 µM)
drug susceptibility of the isolate ([1]; TVH1 isolate): sensitive
inhibition at 0.2 µg/mL ([1]; Trichomonas vaginalis, 12 h): 4.9 ± 3.9%
inhibition at 0.4 µg/mL ([1]; Trichomonas vaginalis, 12 h): 19.3 ± 5.5%
inhibition at 0.8 µg/mL ([1]; Trichomonas vaginalis, 12 h): 38.9 ± 7.1%
inhibition at 1.6 µg/mL ([1]; Trichomonas vaginalis, 12 h): 59.2 ± 8.6%
inhibition at 3.1 µg/mL ([1]; Trichomonas vaginalis, 12 h): 64.6 ± 5.3%
inhibition at 6.2 µg/mL ([1]; Trichomonas vaginalis, 12 h): 77.5 ± 6.3%
inhibition at 0.2 µg/mL ([1]; Trichomonas vaginalis, 24 h): 10.3 ± 6.7%
inhibition at 0.4 µg/mL ([1]; Trichomonas vaginalis, 24 h): 32.8 ± 2.6%
inhibition at 0.8 µg/mL ([1]; Trichomonas vaginalis, 24 h): 55 ± 4.6%
inhibition at 1.6 µg/mL ([1]; Trichomonas vaginalis, 24 h): 72.6 ± 2.3%
inhibition at 3.1 µg/mL ([1]; Trichomonas vaginalis, 24 h): 84.6 ± 2.7%
inhibition at 6.2 µg/mL ([1]; Trichomonas vaginalis, 24 h): 93.4 ± 0.6%
inhibition at 0.2 µg/mL ([1]; Trichomonas vaginalis, 48 h): 25.9 ± 4.8%
inhibition at 0.4 µg/mL ([1]; Trichomonas vaginalis, 48 h): 44 ± 2.2%
inhibition at 0.8 µg/mL ([1]; Trichomonas vaginalis, 48 h): 73.4 ± 2.5%
inhibition at 1.6 µg/mL ([1]; Trichomonas vaginalis, 48 h): 91.5 ± 2.3%
inhibition at 3.1 µg/mL ([1]; Trichomonas vaginalis, 48 h): 98.2 ± 0.4%
inhibition at 6.2 µg/mL ([1]; Trichomonas vaginalis, 48 h): 100%

C=CC(C)(CCC=C(C)C)OC(C)=O (stereo not shown) [linalyl acetate]
antimalarial activity (Plasmodium falciparum): most potent antimalarial activity

CC(C)=C1CC[C@@H](C)CC1=O [pulegone]
antimalarial activity (Plasmodium falciparum): most potent antimalarial activity

CC1=CCC2CC1C2(C)C (stereo not drawn) [α-Pinene]
antimalarial activity (Plasmodium falciparum): most potent antimalarial activity
IC50 (Plasmodium falciparum; read-out: IC 50 (growth inhibition)): 1200 ± 200 nM
MLC (minimum lethal concentration) ([1]; 12 hours incubation): 250 µg/mL (≈ 1840 µM)
MLC (minimum lethal concentration) ([1]; 24 hours incubation): 125 µg/mL (≈ 918 µM)
MLC (minimum lethal concentration) ([1]; 48 hours incubation): 125 µg/mL (≈ 918 µM)
IC50 ([1]; Trichomonas vaginalis, 12 h): 38.9 µg/mL (≈ 286 µM)
inhibition at 3.9 µg/mL ([1]; Trichomonas vaginalis, 12 h): 21.4 ± 7.6%
inhibition at 7.8 µg/mL ([1]; Trichomonas vaginalis, 12 h): 26.3 ± 5.5%
inhibition at 15.6 µg/mL ([1]; Trichomonas vaginalis, 12 h): 40.2 ± 6.3%
inhibition at 31.2 µg/mL ([1]; Trichomonas vaginalis, 12 h): 48.5 ± 4.1%
inhibition at 62.5 µg/mL ([1]; Trichomonas vaginalis, 12 h): 54.5 ± 3.3%
inhibition at 250 µg/mL ([1]; Trichomonas vaginalis, 12 h): 100%
IC50 ([1]; Trichomonas vaginalis, 24 h): 30.2 µg/mL (≈ 222 µM)
inhibition at 3.9 µg/mL ([1]; Trichomonas vaginalis, 24 h): 15.5 ± 5.8%
inhibition at 7.8 µg/mL ([1]; Trichomonas vaginalis, 24 h): 29.2 ± 6.3%
inhibition at 15.6 µg/mL ([1]; Trichomonas vaginalis, 24 h): 69.3 ± 7.7%
inhibition at 31.2 µg/mL ([1]; Trichomonas vaginalis, 24 h): 76.5 ± 8.8%
inhibition at 62.5 µg/mL ([1]; Trichomonas vaginalis, 24 h): 80.9 ± 6.4%
inhibition at 250 µg/mL ([1]; Trichomonas vaginalis, 24 h): 100%
IC50 ([1]; Trichomonas vaginalis, 48 h): 22.9 µg/mL (≈ 168 µM)
inhibition at 3.9 µg/mL ([1]; Trichomonas vaginalis, 48 h): 10.2 ± 6.5%
inhibition at 7.8 µg/mL ([1]; Trichomonas vaginalis, 48 h): 45.3 ± 4.7%
inhibition at 15.6 µg/mL ([1]; Trichomonas vaginalis, 48 h): 74.3 ± 5.2%
inhibition at 31.2 µg/mL ([1]; Trichomonas vaginalis, 48 h): 84.1 ± 4.3%
inhibition at 62.5 µg/mL ([1]; Trichomonas vaginalis, 48 h): 96.7 ± 6.2%
inhibition at 250 µg/mL ([1]; Trichomonas vaginalis, 48 h): 100%
IC50 ([1]; Trichomonas vaginalis, read-out: IC50 (range over incubation times)): 22.9 to 38.9 µg/mL (≈ 168 to 286 µM)
IC50 ([1]; Trichomonas vaginalis, read-out: mean IC50): 30.7 µg/mL (≈ 225 µM)
IC50 [2]: 19.7 µg/mL (≈ 145 µM)
CC50 at 12 h (MTT cytotoxicity assay): 226 µg/mL (≈ 1660 µM)
CC50 at 24 h (MTT cytotoxicity assay): 209 µg/mL (≈ 1530 µM)
CC50 at 48 h (MTT cytotoxicity assay): 116 µg/mL (≈ 851 µM)
SI (selectivity index = CC50/IC50) (Vero cells; Vero CC50 / Trichomonas IC50, 12 hours): 5.8
SI (selectivity index = CC50/IC50) (Vero cells; Vero CC50 / Trichomonas IC50, 24 hours): 6.9
SI (selectivity index = CC50/IC50) (Vero cells; Vero CC50 / Trichomonas IC50, 48 hours): 5
average selectivity index (SI) (Vero cells; average of 12, 24 and 48 hours): 5.9
IC50 (cytotoxic effect) [3]: 15.6 µg/mL (≈ 115 µM)
necrotic effect [4]: 50.5%

Tannic acid
Growth inhibition percent (Mean ± SD) ([1]; 62.5 μg/ml, 12 hours): 1.4 ± 5.2%
Growth inhibition percent (Mean ± SD) ([1]; 62.5 μg/ml, 24 hours): 4.3 ± 4.9%
Growth inhibition percent (Mean ± SD) ([1]; 62.5 μg/ml, 48 hours): 21.1 ± 6.2%
Growth inhibition percent (Mean ± SD) ([1]; 250 μg/ml, 12 hours): 13.4 ± 8.3%
Growth inhibition percent (Mean ± SD) ([1]; 250 μg/ml, 24 hours): 26.4 ± 3.9%
Growth inhibition percent (Mean ± SD) ([1]; 250 μg/ml, 48 hours): 71.5 ± 6.8%
Growth inhibition percent (Mean ± SD) ([1]; 500 μg/ml, 12 hours): 16.9 ± 5.2%
Growth inhibition percent (Mean ± SD) ([1]; 500 μg/ml, 24 hours): 33.8 ± 4.8%
Growth inhibition percent (Mean ± SD) ([1]; 500 μg/ml, 48 hours): 74.9 ± 5.1%
Growth inhibition percent (Mean ± SD) ([1]; 1000 μg/ml, 12 hours): 19.8 ± 6.7%
Growth inhibition percent (Mean ± SD) ([1]; 1000 μg/ml, 24 hours): 59.9 ± 6.2%
Growth inhibition percent (Mean ± SD) ([1]; 1000 μg/ml, 48 hours): 87.6 ± 4.4%
Growth inhibition percent (Mean ± SD) ([1]; 2000 μg/ml, 12 hours): 78.8 ± 5.1%
Growth inhibition percent (Mean ± SD) ([1]; 2000 μg/ml, 24 hours): 80.4 ± 3.8%
Growth inhibition percent (Mean ± SD) ([1]; 2000 μg/ml, 48 hours): 100 ± 0.0%
Growth inhibition percent (Mean ± SD) ([1]; 4000 μg/ml, 12 hours): 100 ± 0.0%
Growth inhibition percent (Mean ± SD) ([1]; 4000 μg/ml, 24 hours): 100 ± 0.0%
Growth inhibition percent (Mean ± SD) ([1]; 4000 μg/ml, 48 hours): 100 ± 0.0%
IC50 ([1]; 12 hours incubation): 1398 µg/mL
MLC (minimum lethal concentration) ([1]; 12 hours incubation): 4000 µg/mL
IC50 ([1]; 24 hours incubation): 689 µg/mL
MLC (minimum lethal concentration) ([1]; 24 hours incubation): 4000 µg/mL
IC50 ([1]; 48 hours incubation): 140 µg/mL
MLC (minimum lethal concentration) ([1]; 48 hours incubation): 2000 µg/mL
mean IC50 ([1]; average of 12, 24 and 48 hours): 742.3 µg/mL
CC50 (Vero cells; 12 hours): 747 µg/mL
CC50 (Vero cells; 24 hours): 677 µg/mL
CC50 (Vero cells; 48 hours): 473 µg/mL
necrotic effect [4]: 31.9%
